Data on 48 molecules can be found in patent US20090306373A1, “4,7-DIHYDROTHIENO[2,3-B]PYRIDINE COMPOUNDS AND PHARMACEUTICAL COMPOSITIONS” (priority 2005, published 2009).

The assay has as its system alpha-MyHC. Nature of the assay: alpha-MyHC cytoblot in neonatal rat ventricular myocytes (NRVM). The class given is cell-based. The conditions noted are these: for Max Plateau: fitted maximum, percent fraction of low control (vehicle), in %; for pEC50: Rattus norvegicus, Ventricular myocyte, concentration giving 50% of maximum response. As for the experimental part: In vitro activity of each compound is measured using the alpha-MyHC cytoblot process. Briefly, neonatal rat ventricular myocytes (NRVM) at 120,000 cells/ml in HyQ DME/High modified culture media supplemented with 10% charcoal/dextran treated FBS, 0.1% Nutridoma-SP, 1:100 MEM non-essential amino acids, 1:50 MEM amino acids solution w/o L-Gln, 1 mM sodium pyruvate and 1:100 P/S/G, are plated on gelatin coated sterile 384-well plates (Costar 3712) at 6,000 cells per well. Cells are incubated overnight at 37° C. in 5% CO2 100% humidity. Following overnight growth the media is changed to HyQ DME/High modified culture media supplemented with 0.3% Nutridoma-SP, 1:100 MEM non-essential amino acids, 1:50 MEM amino acids solution w/o L-Gln, 1 mM sodium pyruvate and 1:100 P/S/G. Cells are then dosed with serial dilutions of each compound in DMSO. Each concentration in the dose range is dosed in quadruplicate. Dosing is done in such a way so that the final DMSO concentration was 0.44%. Compound dilutions are 3-fold with the final top concentration of 10 uM. […] Following dosing, the cells are incubated for 72 hours at 37° C. in 5% CO2 100% humidity and then processed with the cytoblot method. Briefly, cell media is aspirated and cell monolayers washed with PBS and fixed with 100% methanol for 30 minutes. Fixed cells are then blocked with PBS, 0.05% Tween-20, 1% BSA, for 1 hour. Following blocking, cells are incubated with primary alpha-MyHC-specific antibody (1:30 dilution of BA-G5 hybridoma conditioned media, ATCC HB276) for 1 hour. Following incubation with the primary antibody, cells are washed with PBS, 0.05% Tween-20, 1% BSA and incubated with secondary antibody (1:1000 dilution, goat-anti-mouse HRP, Southern Biotech, 1031-05) for 1 hour. Following incubation with the secondary antibody, wells are washed and incubated in SuperSignal, West Dura HRP-luminescence substrate for 30 seconds under shaking at room temperature. Luminescence is measured using a Packard Fusion plate reader. […] RLU values are converted into percent fraction of low control and dose responses are fitted to a sigmoidal 4-parameter equation (XLFit, IDBS) where the EC50 and Max Plateau values were extracted. […] Max Plateau is the […] maximum value determined by the dose response fit.

pEC50: −log10 of the molar value.

Take `CCC1=C(C(=O)OC)C(c2ccccc2F)c2c(sc(C(=O)c3cccc(C#N)c3)c2N)N1` (stereo not drawn) [Compound 164]: the “Max Plateau” value (Table 2, 72 hours) is reported as 279.90.
As for `CCC1=C(C(=O)OC)C(c2ccccc2F)c2c(sc(C(=O)c3ccc(Cl)c(C)c3)c2N)N1` (stereo not drawn) [Compound 150], the “Max Plateau” value (Table 2, 72 hours) was determined as 228.28.
Take `COC(=O)C1=C(C2CC2)Nc2sc(C(=O)c3ccc(Cl)c(Cl)c3)c(N)c2C1c1ccccc1F` (stereo not drawn) [Compound 144]: the “Max Plateau” value (Table 2, 72 hours) is given as 187.17.
Take `CCCC(=O)C1=C(CCC)Nc2sc(C(=O)c3ccc(Cl)c(Cl)c3)c(N)c2C1c1ccccc1F` (stereo not drawn) [Compound 87]: the “Max Plateau” value (Table 1, 72 hours) came out at 187.66 ± 12.24.
Consider `CC(=O)C1=C(C)Nc2sc(C(=O)c3ccccn3)c(N)c2C1c1ccccc1` (stereo not drawn) [Compound 16], for which the “Max Plateau” value (Table 1, 72 hours) stood at 163.33 ± 32.15.
For `CC(=O)C1=C(C)Nc2sc(C(=O)c3ccc(Cl)c(Cl)c3)c(N)c2C1c1ccccc1F` (stereo not drawn) [Compound 27], the “Max Plateau” value (Table 1, 72 hours) amounted to 220.13 ± 23.10.
Turning to `CCOC(=O)C1=C(CC)Nc2sc(C(=O)c3cccc(C(=O)O)c3)c(N)c2C1c1ccccc1` (stereo not drawn) [Compound 152], the “Max Plateau” value (Table 2, 72 hours) was determined as 238.69.
In the case of `CC(=O)C1=C(C)Nc2sc(C(=O)c3ccc(Cl)c(Cl)c3)c(N)c2C1c1ccccc1O` (stereo not drawn) [Compound 34], where the note is “Table 1, 72 hours”, the “Max Plateau” value was determined as 184.69 ± 15.76.
Take `CCC(=O)C1=C(CC)Nc2sc(C(=O)c3ccc(Cl)c(Cl)c3)c(N)c2C1c1ccccc1Cl` (stereo not drawn) [Compound 38]: under “Table 1, 72 hours”, the “Max Plateau” value stood at 288.93 ± 52.81.
On to `CCC(=O)C1=C(CC)Nc2sc(C(=O)c3cc(C(F)(F)F)cc(C(F)(F)F)c3)c(N)c2C1c1ccccc1` (stereo not drawn) [Compound 73], for which the “Max Plateau” value (Table 1, 72 hours) was 205.27 ± 38.78.
`CCC1=C(C(=O)OC(C)CC)C(c2ccccc2F)c2c(sc(C(=O)c3cccc(C#N)c3)c2N)N1` (single isomer, unassigned) [Compound 166]: the “Max Plateau” value (Table 2, 72 hours) was determined as 219.07.
Turning to `CC(=O)C1=C(C)Nc2sc(C(=O)c3ccc(Cl)c(Cl)c3)c(N)c2C1c1cc(F)cc(F)c1` (stereo not drawn) [Compound 55], under “Table 1, 72 hours”, the “Max Plateau” value stood at 229.93 ± 37.33.
Turning to `CCC(=O)C1=C(CC)Nc2sc(C(=O)c3ccc(Cl)c(Cl)c3)c(N)c2C1c1cccc(Cl)c1` (stereo not drawn) [Compound 54], where the note is “Table 1, 72 hours”, the “Max Plateau” value is on record as 267.44 ± 32.29.
As for `CC(=O)C1=C(C)Nc2sc(C(=O)c3ccccc3)c(N)c2C1c1ccncc1` (stereo not drawn) [Compound 19], the “Max Plateau” value (Table 1, 72 hours) is 260.00 ± 36.06.
For `CCC(=O)C1=C(CC)Nc2sc(C(=O)c3cccc(F)c3)c(N)c2C1c1ccccc1` (stereo not drawn) [Compound 49], the “Max Plateau” value (Table 1, 72 hours) came out at 299.18 ± 42.31.
The molecule `CCOC(=O)C1=C(CC)Nc2sc(C(=O)c3cccnc3)c(N)c2C1c1ccncc1F` (stereo not drawn) [Compound 174, 3-amino-6-ethyl-4-(3 fluoro-pyridin-4-yl)-2-(pyridine-3-carbonyl)-4,7 dihydro-thieno[2,3-b]pyridine-5-carboxylic acid ethyl ester] had a pEC50 (Table 2, 72 hours) of 7.66.
On to `CC(=O)C1=C(C)Nc2sc(C(=O)c3cccc([N+](=O)[O-])c3)c(N)c2C1c1ccc(C(=O)O)cc1` (stereo not drawn) [Compound 9], for which the “Max Plateau” value (Table 1, 72 hours) came out at 100.00 ± 0.00.
Same read-out and setting: with `CC(=O)C1=C(C)Nc2sc(C(=O)c3ccccc3)c(N)c2C1C1CCCCC1` (stereo not drawn) [Compound 26] the figure was 185.33 ± 55.04.
Consider `CCC(=O)C1=C(CC)Nc2sc(C(=O)c3ccc(F)c(F)c3)c(N)c2C1c1ccccc1` (stereo not drawn) [Compound 72], for which, under “Table 1, 72 hours”, the “Max Plateau” value stood at 223.99 ± 24.51.
For `CC(=O)C1=C(C)Nc2sc(C(=O)c3ccc(Cl)c(Cl)c3)c(N)c2C1c1ccc[nH]1` (stereo not drawn) [Compound 42], the “Max Plateau” value (Table 1, 72 hours) stood at 160.56 ± 20.02.
The same measure, in the same setting: with `CCCC(=O)C1=C(CCC)Nc2sc(C(=O)c3ccc(Cl)c(Cl)c3)c(N)c2C1c1ccccc1` (stereo not drawn) [Compound 86] the figure was 131.26 ± 2.34.
On to `CCC1=C(C(=O)OC)C(c2cccc(Cl)c2F)c2c(sc(C(=O)c3cccc([N+](=O)[O-])c3)c2N)N1` (stereo not drawn) [Compound 156], for which the “Max Plateau” value (Table 2, 72 hours) was determined as 243.78.
`COCC1=C(C(=O)OC)C(c2ccccc2)c2c(sc(C(=O)c3ccc(Cl)c(Cl)c3)c2N)N1` (stereo not drawn) [Compound 120]: under “Table 2, 72 hours”, the “Max Plateau” value worked out at 140.79.
In the case of `CCOC(=O)C1=C(C)Nc2sc(C(=O)c3ccccc3)c(N)c2C1(C)c1ccccc1` (stereo not drawn) [Compound 206], the negative-log EC50 (pEC50) (Table 4, 72 hours) is 6.03.
On to `CC(=O)C1=C(C)Nc2sc(C(=O)c3ccncc3)c(N)c2C1c1ccccc1` (stereo not drawn) [Compound 10], for which the “Max Plateau” value (Table 1, 72 hours) is given as 210.00 ± 36.06.
Take `CCC(=O)C1=C(CC)Nc2sc(C(=O)c3ccccc3Cl)c(N)c2C1c1ccccc1` (stereo not drawn) [Compound 82]: the “Max Plateau” value (Table 1, 72 hours) turned out to be 245.96 ± 30.73.
In the case of `CCOC(=O)C1=C(CC)Nc2sc(C(=O)c3ccc(F)c(F)c3)c(N)c2C1c1ccncc1F` (stereo not drawn) [Compound 173], the “Max Plateau” value (Table 2, 72 hours) stood at 257.43.
As to `CCC(=O)C1=C(CC)Nc2sc(C(=O)c3ccc(Cl)c(Cl)c3)c(N)c2C1c1ccc(OC)cc1F` (stereo not drawn) [Compound 81], the “Max Plateau” value (Table 1, 72 hours) was found to be 184.00 ± 15.51.
`CC(=O)C1=C(C)Nc2sc(C(=O)c3ccc(Cl)c(Cl)c3)c(N)c2C1c1cc(Cl)cc(Cl)c1` (stereo not drawn) [Compound 33]: the “Max Plateau” value (Table 1, 72 hours) is 143.15 ± 21.22.
As for `CC1=C(C(=O)OC(C)C)C(c2ccccc2)c2c(sc(C(=O)c3ccc(Cl)c(Cl)c3)c2N)N1` (stereo not drawn) [Compound 135], the “Max Plateau” value (Table 2, 72 hours) is 186.32.
As to `CC(=O)C1=C(C)Nc2sc(C(=O)c3cccc(C(=O)O)c3)c(N)c2C1c1ccccc1` (stereo not drawn) [Compound 65], the “Max Plateau” value (Table 1, 72 hours) was found to be 100.00 ± 0.00.
As to `CCC1=C(C(=O)OC)C(c2ccccc2F)c2c(sc(C(=O)c3cccc(Cl)c3)c2N)N1` (stereo not drawn) [Compound 167], the “Max Plateau” value (Table 2, 72 hours) is 255.95.
Take `CCC1=C(C(=O)OC)C(c2c(F)cccc2F)c2c(sc(C(=O)c3cccc([N+](=O)[O-])c3)c2N)N1` (stereo not drawn) [Compound 141]: the “Max Plateau” value (Table 2, 72 hours) is reported as 261.69.
As to `COCCOCN1C(C)=C(C(C)=O)C(c2ccccc2)c2c1sc(C(=O)c1ccccc1)c2N` (racemic) [Compound 209], the “Max Plateau” value (Table 5, 72 hours) came to 192.74.
As for `CCOC(=O)C1=C(CC)Nc2sc(C(=O)c3ccc(Cl)c(Cl)c3)c(N)c2C1c1ccncc1F` (stereo not drawn) [Compound 168], the “Max Plateau” value (Table 2, 72 hours) worked out at 239.64.
Still for that read-out and setting: as for `COC(=O)C1=C(C(C)C)Nc2sc(C(=O)c3ccc(Cl)c(Cl)c3)c(N)c2C1c1ccccc1` (stereo not drawn) [Compound 116], the figure is 107.57.
In the case of `CCC(=O)C1=C(CC)Nc2sc(C(=O)c3ccc(Cl)c(Cl)c3)c(N)c2C1c1cccnc1` (stereo not drawn) [Compound 75], under “Table 1, 72 hours”, the “Max Plateau” value worked out at 226.71 ± 40.80.
Take `CCC(=O)C1=C(CC)Nc2sc(C(=O)c3ccc(Cl)c(Cl)c3)c(N)c2C1c1ccccc1C(F)(F)F` (stereo not drawn) [Compound 60]: under “Table 1, 72 hours”, the “Max Plateau” value is 100.00 ± 0.00.
Regarding `CC(=O)C1=C(C)Nc2sc(C(=O)c3ccc(Cl)c(Cl)c3)c(N)c2C1c1ccc(O)cc1` (stereo not drawn) [Compound 23], the “Max Plateau” value (Table 1, 72 hours) came out at 277.53 ± 33.46.
Regarding `COC(=O)C1=C(C(C)(C)C)Nc2sc(C(=O)c3ccc(Cl)c(Cl)c3)c(N)c2C1c1ccccc1` (stereo not drawn) [Compound 131], the “Max Plateau” value (Table 2, 72 hours) is reported as 158.97.
For the molecule `CC(=O)C1=C(C)Nc2sc(C(=O)c3ccccc3)c(N)c2C1c1ccc(F)cc1` (stereo not drawn) [Compound 37], the “Max Plateau” value (Table 1, 72 hours) is 227.92 ± 12.46.
`CC(=O)C1=C(C)Nc2sc(C(=O)c3ccc(Cl)c(Cl)c3)c(N)c2C1(C)c1cccc(F)c1` (stereo not drawn) [Compound 207, 1-[3-amino-2-(3,4 dichloro-benzoyl)-4-(3 fluoro-phenyl)-4,6-dimethyl-4,7 dihydro-thieno[2,3-b]pyridin-5-yl]-ethanone]: the negative logarithm of the EC50 (pEC50) (Table 4, 72 hours) is 5.48.
On to `CCC(=O)C1=C(CC)Nc2sc(C(=O)c3ccc(F)c(F)c3)c(N)c2C1c1ccccc1F` (stereo not drawn) [Compound 108, 1-[3-amino-2-(3,4 difluoro-benzoyl)-6-ethyl-4-(2 fluoro-phenyl)-4,7 dihydro-thieno[2,3-b]pyridine-5-yl]propan-1-one], for which the negative-log EC50 (pEC50) (Table 1, 72 hours) is 8.40.
As to `CCC(=O)C1=C(CC)Nc2sc(C(=O)c3cc(F)cc(F)c3)c(N)c2C1c1ccccc1` (stereo not drawn) [Compound 76], under “Table 1, 72 hours”, the “Max Plateau” value is 230.70 ± 23.22.
Take `CCOC(=O)C1=C(CC)Nc2sc(C(=O)c3ccc(F)c(CC(=O)OC)c3)c(N)c2C1c1ccccc1` (racemic) [Compound 194]: the “Max Plateau” value (Table 2, 72 hours) was found to be 188.67.
With `CCC(=O)C1=C(CC)Nc2sc(C(=O)c3cccc([N+](=O)[O-])c3)c(N)c2C1c1ccccc1F` (stereo not drawn) [Compound 97], the “Max Plateau” value (Table 1, 72 hours) is recorded as 247.24 ± 38.88.
Still for that read-out and setting: as for `COC(=O)c1cccc(C(=O)c2sc3c(c2N)C(c2ccccc2)C(C(C)=O)=C(C)N3)c1` (stereo not drawn) [Compound 62], the figure is 279.31 ± 67.94; as for `CCC(=O)C1=C(CC)Nc2sc(C(=O)c3cccnc3)c(N)c2C1c1ccnc(F)c1` (stereo not drawn) [Compound 103], 254.65 ± 31.26.

For orientation: pEC50 means the negative decadic logarithm of the EC50, by convention in mol/L. The low end stands for a high EC50, the high end for a low EC50.
